Test results published in PMC8717366, “Synthesis and Pharmacological Characterization of Visabron, a Backbone Cyclic Peptide Dual Antagonist of α4β1 (VLA-4)/α9β1 Integrin for Therapy of Multiple Sclerosis” (JACS Au, 2021).
Like-named read-outs stand apart in the source and are kept apart here. Numbered stars: 1 amine (or outer) side, 2 acyl side, 3 side chain; on linkers, the order of the positions; unused ones are H or OH. Bridge positions count the residues as written; N and C are the ends. Square brackets hold non-standard residues; d marks the D form. Peptide text beside a SMILES is read from it. N(6-aminohexyl)Gly = O=C(CN(CCCCCCN[*:3])[*:1])[*:2]; CO = O=C([*:1])[*:2]; Nlys = NCCCCNCC(=O)O

Key:
[1] = molecular target: T1, α4β1-VCAM-1 Fc chimera (Homo sapiens, UniProt P05556+P13612); assay: ELISA solid-phase ligand-receptor binding, integrin α4β1 to VCAM-1 Fc chimera
T1 construct: purchased R&D Systems Co (Minneapolis, MN)
Method: (§1) Recombinant human VCAM-1 and MadCAM-1 (3 mg/mL in phosphate-buffered saline containing divalent cations), were immobilized on the wells of a 96-well ELISA plate (Dynatech Immulon) by overnight incubation at 4 °C. After washing with HBSST (Hanks’ Balanced Salt solution containing calcium and magnesium and 0.05% Tween-20) the plates were blocked with 5% BSA in HBSST by incubation at 37 °C for 1 h. The plates were washed with HBSST, and recombinant human integrin α4β1 or α4β7 (3 mg/mL) was added in the presence or absence of competitor cyclic peptides, disintegrins, or monoclonal anti-integrin antibodies dissolved in HBSS containing 1% BSA. The plates were thereafter incubated at 30 °C for 3 h, as time-binding had reached a plateau, and then washed 3 times with HBSST. Bound integrins were quantitated using primary anti-integrin polyclonal and monoclonal antibodies at a concentration of 0.5 mg/mL in HBSST containing 1% BSA, and incubated at 37 °C for 1 h. The plates were washed 3 times with HBSST and secondary antibodies- alkaline phosphatase (AP) conjugated (Sigma Co.) were added at dilution 1:1000 and incubated at 37 °C for 1 h. Thereafter, the plates were washed 3 times with HBSST and twice with HBSS and the alkaline phosphatase substrate 4-nitrophenyl phosphate was added to the wells for 30 min. The plates were read using Tecan Spectrophotometer at 405 nm. The level of nonspecific binding was measured in each experiment by determining the level of binding to wells coated with BSA alone.

[2] = molecular target: α9β1-VCAM-1 Fc chimera (Homo sapiens, UniProt P05556+Q13797); assay: ELISA binding assay, α9β1 to VCAM-1 Fc chimera
[3] = molecular target: T2, α5β1-fibronectin (Homo sapiens, UniProt P05556+P08648); assay: Adhesion of wild-type K562 cells to immobilized fibronectin; assay type: cell-based
T2 construct: host or cells: K562 wild type
Method: (§2) Cell adhesion assay was carried out as previously described[47] with minor modifications. The day before the experiment, each well was coated with VCAM-1 (3 mg/mL) immobilized on the 96-well plate in PBS by overnight incubation at 4 °C. Thereafter, nonspecific binding was blocked by incubating the wells with 1% (w/v) bovine serum albumin (BSA) in Hank’s Balanced Salt Solution (HBSS) containing 5 mM MgCl2 at room temperature for 1 h before use. The cells were labeled by incubation with 12.5 μM 5-chloromethylfluorescein diacetate (CMFDA) in HBSS without 1% BSA at 37 °C for 30 min. The labeled cells were then centrifuged at 1000 rpm and washed twice with HBSS containing 1% BSA to remove excess CMFDA. Labeled cells (about 1 × 10^5 cells/well) were plated on each well in the presence or absence of visabrons and incubated at 37 °C for 60 min. Unbound cells were removed by washing the wells three times with 1% (w/v) BSA in HBSS, and bound cells were lysed by the addition of 0.5% Triton X-100 (diluted in DDW). The fluorescence in each well was quantified with a SPECTRAFluor Plus plate reader (Tecan), at λex = 485 nm and λem = 530 nm. To determine the number of adhered cells from the fluorescence values, a standard curve was generated by serial dilution of known numbers of CMFDA-labeled cells. […]
(§3) Table S6. TMLD- linear peptides inhibition of adhesion of integrin expressing cells to the respective immobilized ligands a a The cells were incubated for 30 min at 37 °C with the cells (1 x 105) in the 96 -well plate, previously covered with extracellular matrix ligand, in 100 µL of HBSS containing calcium and magnesium. After being washed with the same buffer, the adhered cells were lysed by Triton X-100, and the plate was read using Tecan spectrofluorimeter. The inhibitory dose 50% (IC 50) values represent ing mean ± standard deviatio ns (n=6) were calculated from dose response curves. bJurkat cells,VCAM -1; c α9-SW480 overexpressing cells, VCAM-1; d α1-K562 overexpressing cells, collagen IV ;e α2-K562 overexpressing cells, collagen I; f K562 wild type

[4] = molecular target: T3, α4β1 (Jurkat lymphocytes-VCAM-1) (Homo sapiens, UniProt P05556+P13612); assay: Adhesion of Jurkat lymphocytes to immobilized VCAM-1; assay type: cell-based
T3 construct: host or cells: Jurkat (untreated or TNFα-treated)
Method: as §2, §3

[5] = molecular target: T4, α1β1-collagen IV (Homo sapiens, UniProt P05556+P56199); assay: Adhesion of α1-K562 overexpressor cells to immobilized collagen IV; assay type: cell-based
T4 construct: expressed in transfected cells; host or cells: K562 transfected with α1 integrin (gift of Dr. M. Hemler)
Method: as §2, §3

[6] = molecular target: T5, α2β1-collagen I (Homo sapiens, UniProt P05556+P17301); assay: Adhesion of α2-K562 overexpressor cells to immobilized collagen I; assay type: cell-based
T5 construct: expressed in transfected cells; host or cells: K562 transfected with α2 integrin (gift of Dr. M. Hemler)
Method: as §2, §3

[7] = molecular target: T6, α9β1 (Homo sapiens, UniProt P05556+Q13797); assay: Adhesion of α9-SW480 overexpressing cells to VCAM-1; assay type: cell-based; settings: n=6, Table S6, read-out: IC50 α9β1 (linear peptides)
T6 construct: generated by transfection with full-length α9 expression plasmid pcDNAIneoa9; expressed in transfected cells; host or cells: SW480 transfected with pcDNAIneoa9
Method: as §3, with “type […]” for “type”
(1 picture or pasted object on this page, not shown here)

[8] = test system: U937 macrophages-VCAM-1 (α4β1, αMβ2, α3β1, α6β1); assay: Adhesion of U937 macrophages to immobilized VCAM-1; assay type: cell-based, human
Method: Cell adhesion assay was carried out as previously described[47] with minor modifications. The day before the experiment, each well was coated with VCAM-1 (3 mg/mL) immobilized on the 96-well plate in PBS by overnight incubation at 4 °C. Thereafter, nonspecific binding was blocked by incubating the wells with 1% (w/v) bovine serum albumin (BSA) in Hank’s Balanced Salt Solution (HBSS) containing 5 mM MgCl2 at room temperature for 1 h before use. The cells were labeled by incubation with 12.5 μM 5-chloromethylfluorescein diacetate (CMFDA) in HBSS without 1% BSA at 37 °C for 30 min. The labeled cells were then centrifuged at 1000 rpm and washed twice with HBSS containing 1% BSA to remove excess CMFDA. Labeled cells (about 1 × 10^5 cells/well) were plated on each well in the presence or absence of visabrons and incubated at 37 °C for 60 min. Unbound cells were removed by washing the wells three times with 1% (w/v) BSA in HBSS, and bound cells were lysed by the addition of 0.5% Triton X-100 (diluted in DDW). The fluorescence in each well was quantified with a SPECTRAFluor Plus plate reader (Tecan), at λex = 485 nm and λem = 530 nm. To determine the number of adhered cells from the fluorescence values, a standard curve was generated by serial dilution of known numbers of CMFDA-labeled cells.

[9] = molecular target: T7, α4β7-MAdCAM-1 Fc chimera (Homo sapiens, UniProt P13612+P26010); assay: ELISA solid-phase ligand-receptor binding, integrin α4β7 to MAdCAM-1 Fc chimera
T7 construct: purchased R&D Systems Co (Minneapolis, MN)
Method: as §1

[10] = wild-type K562 (α5β1), 30 min at 37 °C, read-out: IC50 α5β1-fibronectin
[11] = Jurkat treated with TNF-α (10 ng/mL) for 24 h, read-out: IC50 Jurkat lymphocytes-VACAM-1 TNFα
[12] = untreated Jurkat lymphocytes (α4β1), read-out: IC50 Jurkat lymphocytes-VACAM-1 control
[13] = α1-K562 overexpressed cells, 30 min at 37 °C, read-out: IC50 α1β1-collagen IV
[14] = α2-K562 overexpressed cells, 30 min at 37 °C, read-out: IC50 α2β1-collagen I
[15] = K562 wild type cells, fibronectin, n=6, Table S6, read-out: IC50 α5β1 (linear peptides)
[16] = Jurkat cells, VCAM-1, n=6, Table S6, read-out: IC50 α4β1 (linear peptides)
[17] = α1-K562 overexpressing cells, collagen IV, n=6, Table S6, read-out: IC50 α1β1 (linear peptides)
[18] = α2-K562 overexpressing cells, collagen I, n=6, Table S6, read-out: IC50 α2β1 (linear peptides)

T4 sequence (P56199 29-1179): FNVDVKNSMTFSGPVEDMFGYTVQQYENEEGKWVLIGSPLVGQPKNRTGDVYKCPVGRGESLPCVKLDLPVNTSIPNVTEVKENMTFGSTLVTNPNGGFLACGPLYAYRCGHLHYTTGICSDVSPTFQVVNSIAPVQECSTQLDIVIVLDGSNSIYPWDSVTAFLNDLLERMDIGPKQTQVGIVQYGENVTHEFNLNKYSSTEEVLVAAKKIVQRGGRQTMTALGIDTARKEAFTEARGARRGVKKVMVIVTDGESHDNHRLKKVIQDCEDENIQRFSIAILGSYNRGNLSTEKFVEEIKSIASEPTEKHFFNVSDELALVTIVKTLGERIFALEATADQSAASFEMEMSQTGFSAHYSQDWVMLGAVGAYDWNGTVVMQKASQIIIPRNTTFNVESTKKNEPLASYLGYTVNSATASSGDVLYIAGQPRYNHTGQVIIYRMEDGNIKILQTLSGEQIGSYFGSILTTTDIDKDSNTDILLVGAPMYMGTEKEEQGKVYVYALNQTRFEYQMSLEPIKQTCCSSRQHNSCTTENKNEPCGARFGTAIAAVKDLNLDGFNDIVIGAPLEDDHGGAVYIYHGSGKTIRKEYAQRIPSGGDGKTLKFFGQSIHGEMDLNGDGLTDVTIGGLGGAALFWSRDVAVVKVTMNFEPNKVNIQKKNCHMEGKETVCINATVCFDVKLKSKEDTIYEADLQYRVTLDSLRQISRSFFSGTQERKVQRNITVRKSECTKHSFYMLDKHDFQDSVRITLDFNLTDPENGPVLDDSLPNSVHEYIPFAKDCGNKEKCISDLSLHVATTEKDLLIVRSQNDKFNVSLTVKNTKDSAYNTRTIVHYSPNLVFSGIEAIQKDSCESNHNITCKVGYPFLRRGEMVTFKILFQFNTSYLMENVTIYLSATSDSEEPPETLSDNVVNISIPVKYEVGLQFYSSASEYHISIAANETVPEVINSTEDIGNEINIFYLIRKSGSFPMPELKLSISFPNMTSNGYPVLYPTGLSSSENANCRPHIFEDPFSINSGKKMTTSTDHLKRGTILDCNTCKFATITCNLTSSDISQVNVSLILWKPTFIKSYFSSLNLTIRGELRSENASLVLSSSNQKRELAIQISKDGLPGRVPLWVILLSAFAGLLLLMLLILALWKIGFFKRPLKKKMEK
T4 sequence (P05556 21-798): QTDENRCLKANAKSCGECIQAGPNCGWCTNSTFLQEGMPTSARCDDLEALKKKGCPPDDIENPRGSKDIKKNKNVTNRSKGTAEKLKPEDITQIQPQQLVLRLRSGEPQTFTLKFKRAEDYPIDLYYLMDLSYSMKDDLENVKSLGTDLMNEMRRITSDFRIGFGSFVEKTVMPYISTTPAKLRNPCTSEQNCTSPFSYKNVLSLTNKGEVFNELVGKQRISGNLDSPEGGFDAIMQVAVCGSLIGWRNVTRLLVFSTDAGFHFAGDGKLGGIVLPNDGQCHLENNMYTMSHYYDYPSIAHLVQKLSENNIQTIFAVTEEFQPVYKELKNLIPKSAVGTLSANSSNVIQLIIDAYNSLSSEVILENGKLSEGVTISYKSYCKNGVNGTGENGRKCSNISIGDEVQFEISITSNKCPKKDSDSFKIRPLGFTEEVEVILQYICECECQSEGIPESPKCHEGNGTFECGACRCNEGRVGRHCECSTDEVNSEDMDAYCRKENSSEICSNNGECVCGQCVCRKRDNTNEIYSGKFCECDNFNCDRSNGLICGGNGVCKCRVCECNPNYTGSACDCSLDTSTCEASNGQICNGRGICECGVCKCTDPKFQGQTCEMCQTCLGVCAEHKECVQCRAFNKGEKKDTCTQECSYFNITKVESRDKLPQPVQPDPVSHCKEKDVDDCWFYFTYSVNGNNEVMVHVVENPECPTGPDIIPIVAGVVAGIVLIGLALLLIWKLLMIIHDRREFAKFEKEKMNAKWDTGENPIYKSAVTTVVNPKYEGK
T5 sequence (P17301 30-1181): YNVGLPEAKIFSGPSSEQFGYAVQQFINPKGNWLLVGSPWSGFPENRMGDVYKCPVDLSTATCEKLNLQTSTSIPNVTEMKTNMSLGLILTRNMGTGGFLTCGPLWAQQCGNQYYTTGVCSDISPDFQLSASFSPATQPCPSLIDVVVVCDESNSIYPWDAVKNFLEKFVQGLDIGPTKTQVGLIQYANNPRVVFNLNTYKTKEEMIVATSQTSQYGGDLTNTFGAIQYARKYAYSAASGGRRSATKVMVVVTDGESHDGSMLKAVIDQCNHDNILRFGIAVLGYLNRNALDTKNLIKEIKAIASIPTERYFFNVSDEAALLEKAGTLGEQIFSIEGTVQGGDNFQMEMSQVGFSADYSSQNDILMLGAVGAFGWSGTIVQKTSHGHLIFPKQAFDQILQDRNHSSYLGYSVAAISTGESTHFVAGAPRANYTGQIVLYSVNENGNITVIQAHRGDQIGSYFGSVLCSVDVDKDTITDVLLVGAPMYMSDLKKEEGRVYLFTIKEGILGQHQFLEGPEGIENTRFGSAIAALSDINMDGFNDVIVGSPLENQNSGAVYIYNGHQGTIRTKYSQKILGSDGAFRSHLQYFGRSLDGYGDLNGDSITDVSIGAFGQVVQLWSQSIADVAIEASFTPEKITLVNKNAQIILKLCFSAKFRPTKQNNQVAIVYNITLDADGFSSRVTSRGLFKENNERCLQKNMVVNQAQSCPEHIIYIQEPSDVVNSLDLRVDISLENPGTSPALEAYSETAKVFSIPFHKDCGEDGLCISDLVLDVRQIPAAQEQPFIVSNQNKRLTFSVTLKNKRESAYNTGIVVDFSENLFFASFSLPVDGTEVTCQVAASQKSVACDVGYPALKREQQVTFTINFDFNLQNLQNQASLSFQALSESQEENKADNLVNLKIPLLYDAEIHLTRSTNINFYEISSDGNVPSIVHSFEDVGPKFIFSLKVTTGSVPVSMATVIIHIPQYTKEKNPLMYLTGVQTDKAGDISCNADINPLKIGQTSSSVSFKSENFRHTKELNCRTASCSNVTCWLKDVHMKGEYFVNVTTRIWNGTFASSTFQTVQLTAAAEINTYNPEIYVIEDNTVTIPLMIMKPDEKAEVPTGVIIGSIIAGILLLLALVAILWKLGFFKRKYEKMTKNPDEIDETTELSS
T5 sequence (P05556 21-798): as the sequence (P05556 21-798) above
T2 sequence (P08648 42-894 limits assumed): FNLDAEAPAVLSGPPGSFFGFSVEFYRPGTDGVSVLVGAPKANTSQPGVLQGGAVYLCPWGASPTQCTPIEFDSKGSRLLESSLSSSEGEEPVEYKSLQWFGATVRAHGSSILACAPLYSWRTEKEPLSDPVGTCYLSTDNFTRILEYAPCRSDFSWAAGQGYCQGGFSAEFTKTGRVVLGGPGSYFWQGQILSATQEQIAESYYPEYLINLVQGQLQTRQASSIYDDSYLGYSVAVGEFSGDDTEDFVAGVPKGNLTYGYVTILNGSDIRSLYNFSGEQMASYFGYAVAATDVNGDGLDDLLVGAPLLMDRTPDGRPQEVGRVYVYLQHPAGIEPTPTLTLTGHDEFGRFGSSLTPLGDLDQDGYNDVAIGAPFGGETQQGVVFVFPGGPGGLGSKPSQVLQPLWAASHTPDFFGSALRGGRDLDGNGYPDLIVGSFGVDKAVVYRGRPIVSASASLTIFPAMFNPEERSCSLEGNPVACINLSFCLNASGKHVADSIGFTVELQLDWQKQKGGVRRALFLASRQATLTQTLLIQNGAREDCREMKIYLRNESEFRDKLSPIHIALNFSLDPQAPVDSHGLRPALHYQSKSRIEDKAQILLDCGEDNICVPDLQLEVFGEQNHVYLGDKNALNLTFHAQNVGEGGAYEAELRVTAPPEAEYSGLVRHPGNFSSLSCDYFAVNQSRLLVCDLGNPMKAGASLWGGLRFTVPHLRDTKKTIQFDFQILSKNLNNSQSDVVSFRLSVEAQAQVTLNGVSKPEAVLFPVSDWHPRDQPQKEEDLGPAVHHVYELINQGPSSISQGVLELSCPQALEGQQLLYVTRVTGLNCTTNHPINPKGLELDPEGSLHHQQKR
T2 sequence (P08648 895-1049 limits assumed): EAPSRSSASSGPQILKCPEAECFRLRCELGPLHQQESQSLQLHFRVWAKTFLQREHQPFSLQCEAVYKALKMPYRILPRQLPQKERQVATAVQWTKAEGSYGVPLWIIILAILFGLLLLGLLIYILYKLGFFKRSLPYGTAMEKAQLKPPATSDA
T2 sequence (P05556 21-798): as the sequence (P05556 21-798) above

Row | SMILES | IC50 [1] [µM] | IC50 [2] [µM] | IC50 [3, 10] [µM] | IC50 [4, 11] [µM] | IC50 [4, 12] [µM] | IC50 [5, 13] [µM] | IC50 [6, 14] [µM] | IC50 [7] [µM] | IC50 [3, 15] [µM] | IC50 [4, 16] [µM] | IC50 [5, 17] [µM] | IC50 [6, 18] [µM] | IC50 ([8]; U937 treated with PMA (10 ng/mL) for 24 h, read-out: IC50 U937 macrophages-VCAM-1 PMA) [µM] | IC50 ([8]; untreated U937, read-out: IC50 U937 macrophages-VCAM-1 control) [µM] | IC50 [9] [µM]
1 | CSCC[C@@H]1NC(=O)[C@H]([C@@H](C)O)NC(=O)CN(C(=O)[C@@H](N)CCCNC(=N)N)CCCCNC(=O)NCCCCN(CC(=O)N[C@@H](CC(C)C)C(N)=O)C(=O)[C@H](CC(=O)O)NC(=O)[C@H](CC(C)C)NC1=O [Arg-visabron c (4–4)] (H-R[Nlys]TMLD[Nlys]L-NH2; linker 2-7 via CO; N-terminus assumed) | > 10000 | > 10000 | > 10000 | > 5000 | > 5000 | > 10000 | > 10000 |  |  |  |  |  |  |  | 
2 | CSCC[C@H](NC(=O)[C@@H](NC(=O)[C@H](CCCNC(=N)N)NC(=O)[C@H](CCCCN)NC(=O)[C@@H](N)CS)[C@@H](C)O)C(=O)N[C@@H](CC(C)C)C(=O)N[C@@H](CC(=O)O)C(=O)NCC(=O)N[C@@H](CC(C)C)C(=O)N[C@@H](CC(N)=O)C(=O)N[C@@H](CC(=O)O)C(=O)N[C@@H](Cc1ccc(O)cc1)C(=O)N[C@@H](CS)C(N)=O [sequence 3, CKRTMLDGLNDYC] (H-CKRTMLDGLNDYC-NH2; N-terminus and C-terminus assumed) |  |  |  |  |  |  |  | 1250 ± 95 | > 10000 | 1450 ± 105 | > 10000 | > 10000 |  |  | 
3 | CSCC[C@H](NC(=O)[C@H](C)NC(=O)[C@H](CCCNC(=N)N)NC(=O)[C@H](CCCCN)NC(=O)[C@@H](N)CS)C(=O)N[C@@H](CC(C)C)C(=O)N[C@@H](CC(=O)O)C(=O)NCC(=O)N[C@@H](CC(C)C)C(=O)N[C@@H](CC(N)=O)C(=O)N[C@@H](CC(=O)O)C(=O)N[C@@H](Cc1ccc(O)cc1)C(=O)N[C@@H](CS)C(N)=O [sequence 4, CKRAMLDGLNDYC] (H-CKRAMLDGLNDYC-NH2; N-terminus and C-terminus assumed) |  |  |  |  |  |  |  | 2840 ± 115 | > 10000 | 3910 ± 80 | > 10000 | > 10000 |  |  | 
4 | CSCC[C@H](NC(=O)[C@@H](NC(=O)[C@H](CCCNC(=N)N)NC(=O)[C@@H](N)CCCCN)[C@@H](C)O)C(=O)N[C@@H](CC(C)C)C(=O)N[C@@H](CC(=O)O)C(=O)NCC(=O)N[C@@H](CC(C)C)C(N)=O [sequence 5, KRTMLDGL] (H-KRTMLDGL-NH2; N-terminus and C-terminus assumed) |  |  |  |  |  |  |  | 1260 ± 80 | > 10000 | 1310 ± 95 | > 10000 | > 10000 |  |  | 
5 | CSCC[C@@H]1NC(=O)[C@H]([C@@H](C)O)NC(=O)CN(C(=O)[C@@H](N)CCCCN)CCCCCCNC(=O)NCCCCCCN(CC(=O)N[C@@H](CC(C)C)C(N)=O)C(=O)[C@H](CC(=O)O)NC(=O)[C@H](CC(C)C)NC1=O [visabron c (6–6)] (H-K[N(6-aminohexyl)Gly]TMLD[N(6-aminohexyl)Gly]L-NH2; linker 2-7 via CO) | 0.7 | 0.9 | > 10000 | 4 | 5 | > 10000 | > 10000 |  |  |  |  |  | 15 | 20 | > 500
